What is called inhibition is the percentage by which the read-out fell short of the control.

In the test the target is T1, α-glucosidase (Aspergillus niger, UniProt P56526).
T1 construct: gene aglA
T1 sequence (P56526 26-985): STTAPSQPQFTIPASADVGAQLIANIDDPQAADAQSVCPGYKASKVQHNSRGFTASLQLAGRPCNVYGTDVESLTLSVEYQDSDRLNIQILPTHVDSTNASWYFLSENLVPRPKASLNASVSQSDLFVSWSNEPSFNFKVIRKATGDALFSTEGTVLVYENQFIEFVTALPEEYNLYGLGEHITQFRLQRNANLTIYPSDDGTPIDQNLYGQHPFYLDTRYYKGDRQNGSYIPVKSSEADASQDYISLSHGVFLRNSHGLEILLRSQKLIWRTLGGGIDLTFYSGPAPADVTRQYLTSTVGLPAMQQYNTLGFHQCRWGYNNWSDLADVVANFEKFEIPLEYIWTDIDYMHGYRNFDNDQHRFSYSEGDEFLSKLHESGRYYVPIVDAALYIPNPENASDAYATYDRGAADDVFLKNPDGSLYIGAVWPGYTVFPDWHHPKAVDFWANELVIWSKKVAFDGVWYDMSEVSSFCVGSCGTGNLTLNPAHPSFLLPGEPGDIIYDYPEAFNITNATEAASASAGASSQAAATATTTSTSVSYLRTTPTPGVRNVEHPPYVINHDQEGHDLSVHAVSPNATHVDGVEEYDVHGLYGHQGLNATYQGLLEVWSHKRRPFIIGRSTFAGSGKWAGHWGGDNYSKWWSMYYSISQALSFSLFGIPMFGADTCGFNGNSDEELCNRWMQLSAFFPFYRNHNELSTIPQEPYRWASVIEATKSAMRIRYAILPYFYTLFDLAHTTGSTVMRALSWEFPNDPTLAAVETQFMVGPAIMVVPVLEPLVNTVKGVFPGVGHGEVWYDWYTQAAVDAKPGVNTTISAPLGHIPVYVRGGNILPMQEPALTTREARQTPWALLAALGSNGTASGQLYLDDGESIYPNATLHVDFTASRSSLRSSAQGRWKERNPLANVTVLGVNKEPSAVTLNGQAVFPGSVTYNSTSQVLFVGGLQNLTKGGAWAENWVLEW
As to the kind of experiment: personal glucose meter assay of maltose hydrolysis, single concentration […]. Format: biochemical.
Take `O=Cc1ccc(O)c(O)c1` [protocatechualdehyde]: testing at 5000 µM gave an inhibition of 36.8 ± 2.8%.
Compound `O=C(/C=C/c1ccc(O)c2c1[C@H](C(=O)O)[C@@H](c1ccc(O)c(O)c1)O2)O[C@H](Cc1ccc(O)c(O)c1)C(=O)O` [lithospermic acid] yielded an inhibition at 5000 µM of 52.5 ± 3%.
In turn, `OC[C@H]1O[C@@H](Oc2c(O)cc(O)cc2/C=C/c2ccc(O)cc2)[C@H](O)[C@@H](O)[C@@H]1O` [TSG, 2,3,5,4′-tetrahydroxy stilbene-2-O-β-D-glucoside] had an inhibition at 5000 µM of 27 ± 2%.

The values above are taken from publication PMC8348101, “Personal Glucose Meter for α-Glucosidase Inhibitor Screening Based on the Hydrolysis of Maltose” (Molecules, 2021).
